The numbers were not newly measured in patent US20130108552A1, “NEAR-IR INDOCYANINE GREEN DOPED MULTIMODAL SILICA NANOPARTICLES AND METHODS FOR MAKING THE SAME” (UNIVERSITY OF FLORIDA RESEARCH FOUNDATION INC., priority 2010, published 2013), which cites them from elsewhere.

SMILES strings stand for the structures.

In data set [1] the test system is nonspecific plasma proteins.
The conditions of data set [2]: in H2O.

In the case of `CC1(C)C(/C=C/C=C/C=C/C=C2\N(CCCCS(=O)(=O)O)c3ccc4ccccc4c3C2(C)C)=[N+](CCCCS(=O)(=O)[O-])c2ccc3ccccc3c21` [ICG, indocyanine green], in data set [1], the “binding to nonspecific plasma proteins” value is listed as “strongly bind to nonspecific plasma proteins”. Also, in data set [2], the critical micelle concentration result is “about 0.32 mg/mL”.
